This is an account of results in EP2951180B1, “2,6,7,8 SUBSTITUTED PURINES AS HDM2 INHIBITORS” (Merck Sharp & Dohme Corp., priority 2013, dated 2014).

The target of the assay is T1, HDM2 (Homo sapiens, UniProt Q00987).
T1 construct: Thioredoxin (N); made in house; host or cells: E. coli strain BL21(DE3)Rosetta
The assay can be described thus: HDM2 FRET assay (inhibition of binding of FITC labeled p53-pocket peptide to HDM2). The note with it: read-out: FRET IC50. Summed up:
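Displacement of FITC-p53 peptide (3 nM) from His-tagged HDM2 (0.5 nM) is measured by Tb-to-fluorescein FRET in PBS, 0.01% BSA, 0.01% Tween-20. IC50 values derive from 10-point curves.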

[1] abbreviates: 0.5 nM HDM2 (residues 17 to 125), 3nM peptide, two hour incubation at room temperature.

Where two headings read alike, the source gives them in different places.

T1 sequence (Q00987 17-125): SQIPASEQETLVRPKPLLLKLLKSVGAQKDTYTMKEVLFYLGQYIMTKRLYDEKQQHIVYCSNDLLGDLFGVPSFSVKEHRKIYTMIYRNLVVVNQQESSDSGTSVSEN

For the compound `Cc1cccc(-c2nc(-c3noc(=O)[nH]3)nc3nc(N4CCOCC4)n(C[C@H]4CC[C@H](C)CC4)c23)c1` [Example 16.27, 3-{7-[(trans-4-methylcyclohexyl)methyl]-6-(3-methylphenyl)-8-morpholin-4-yl-7H-purin-2-yl}-1,2,4-oxadiazol-5(4H)-one], the IC50 (commonly the concentration that inhibits the measured activity by half) under setting [1] was found to be 0.334 µM. Still for that read-out and setting: next, `C[C@H]1CC[C@H](Cn2c(N3CCOC[C@H]3c3ccccc3)nc3nc(-c4n[nH]c(=O)o4)nc(C4CCOCC4)c32)CC1` [Example 16.168, 5-{7-[(trans-4-methylcyclohexyl)methyl]-8-[(3R)-3-phenylmorpholin-4-yl]-6-(tetrahydro-2H-pyran-4-yl)-7H-purin-2-yl} -1,3,4-oxadiazol-2(3H)-one]: 0.0671 µM. On to `CC(C)CC1COCCN1c1nc2nc(-c3noc(=O)[nH]3)nc(N[C@H](C)C3CCC3)c2n1C[C@H]1CC[C@H](C)CC1` (stereo partly drawn) [Example 11.41, 3-(6-{[(1R)-1-cyclobutylethyl]amino}-7-[(trans-4-methylcyclohexyl)methyl]-8-[3-(2-methylpropyl)morpholin-4-yl]-7H-purin-2-yl)-1,2,4-oxadiazol-5(2H)-one], for which the IC50 (Table 11) amounted to 0.0147 µM.

For `C[C@@H](Nc1nc(C(=O)O)nc2nc(N[C@H](CO)c3ccccc3)n(Cc3ccc(C(F)(F)F)cc3)c12)C1CCC1` [Example 9.8, 6-{[(1R)-1-cyclobutylethyl]amino}-8-{[(1S)-2-hydroxy-1-phenylethyl]amino}-7-[4-(trifluoromethyl)benzyl]-7H-purine-2-carboxylic acid], under “Table 9”, the concentration for half-maximal inhibition (IC50) stood at 0.0152 µM. As to `CC(c1ccc(F)cc1)c1nc2nc(-c3noc(=O)[nH]3)nc(N[C@H](C)C3CCC3)c2n1C[C@H]1CC[C@H](C)CC1` (stereo partly drawn) [Example 21.31, 3-(6-{[(1R)-1-cyclobutylethyl]amino}-8-[1-(4-fluorophenyl)ethyl]-7-[(trans-4-methylcyclohexyl)methyl]-7H-purin-2-yl)-1,2,4-oxadiazol-5(4H)-one], the IC50 (Table 21) was determined as 0.0105 µM. `Cc1cccc(-c2nc3nc(-c4nc[nH]n4)nc(N[C@H](C)C4CC4)c3n2Cc2ccc(C(F)(F)F)cc2)c1` [Example 12.28, N-[(1R)-1-cyclopropylethyl]-8-(3-methylphenyl)-2-(1H-1,2,4-triazol-3-yl)-7-[4-(trifluoromethyl)benzyl]-7H-purin-6-amine]: under setting [1], the IC50 was 0.314 µM. As to `COC(c1nc2nc(-c3noc(=O)[nH]3)nc(-c3cccc(Cl)c3)c2n1C[C@H]1CC[C@H](C)CC1)C1CCOCC1` (mixture of isomers) [Example 23.12, 3-{6-(3-chlorophenyl)-8-[methoxy(tetrahydro-2H-pyran-4-yl)methyl]-7-[(trans-4-methylcyclohexyl)methyl] -7H-purin-2-yl}-1,2,4-oxadiazol-5(4H)-one], the IC50 (Table 23) stood at 0.0133 µM. `CC[C@H](Nc1nc2nc(-c3n[nH]c(=O)o3)nc(-c3cccc(Cl)c3)c2n1C[C@H]1CC[C@H](C)CC1)c1ccccc1` [Example 16.61, 5-[6-(3-chlorophenyl)-7-[(trans-4-methylcyclohexyl)methyl]-8-{[(1S)-1-phenylpropyl]amino} -7H-purin-2-yl]-1,3,4-oxadiazol-2(3H)-one]: the IC50 under setting [1] amounted to 0.00967 µM.

As to `C[C@@H](Nc1nc(C(=O)O)nc2nc(C(=O)N[C@@H](CO)c3ccccc3)n(Cc3ccc(C(F)(F)F)cc3)c12)C1CCC1` [Example 10.15, 6-(((R)-1-cyclobutylethyl)amino)-8-(((R)-2-hydroxy-1-phenylethyl)carbamoyl)-7-(4-(trifluoromethyl)benzyl)-7H-purine-2-carboxylic acid], the IC50 (Table 10) worked out at 0.202 µM. As to `CC[C@@H]1COCCN1c1nc2nc(-c3noc(=O)[nH]3)nc(-c3cccc(Cl)c3)c2n1C[C@H]1CC[C@H](C)CC1` [Example 16.47, 3-{6-(3-chlorophenyl)-8-[(3R)-3-ethylmorpholin-4-yl]-7-[(trans-4-methylcyclohexyl)methyl]-7H-purin-2-yl}-1,2,4-oxadiazol-5(4H)-one], under setting [1], the IC50 came out at 0.0111 µM.
